# Laboratory results as given in patent EP3575287A1, “INHIBITORS OF N-ACYLPHOSPHATIDYLETHANOLAMINE PHOSPHOLIPASE D (NAPE-PLD)” (Universiteit Leiden, priority 2018, dated 2019).
# Target: T1, human NAPE-PLD (Homo sapiens, UniProt Q6IQ20)
# T1 construct: Full length human cDNA NAPE-PLD was obtained from Natsuo Ueda; made in house; host or cells: HEK293T cells, transient transfection (pcDNA3.1); membrane fraction used
# Experiment: In vitro NAPE-PLD activity assay
# Assay type: biochemical
# Conditions: membrane protein fraction of HEK293T cells overexpressing human NAPE-PLD; substrate PED6 1 µM; 30 minutes preincubation at 37 °C
# Description: Full length human cDNA NAPE-PLD was obtained from Natsuo Ueda^1 and cloned into mammalian expression vector pcDNA3.1, containing a C-terminal Flag-tag and genes for ampicillin and neomycin resistance. All plasmids were grown in XL-10 Z-competent cells and prepped (Maxi Prep, Qiagen). Sequence analysis for the confirmation of the sequences was performed at the Leiden Genome Technology Centre.
# HEK293T were cultured at 37 °C and 7% CO2 in DMEM (Sigma Aldrich, D6546) with glutamax, penicillin (100 µg/ml), streptomycin (100 µg/ml) and 10% New Born Calf Serum iron supplemented (Hyclone SH30072.03). Cells were passaged twice a week to appropriate confluence.
# 24 hours before transfection 10^7 cells are seeded on a 15 cm dish. Two hours before transfection medium is refreshed, low volume. Transfection is performed with PEI in a ratio of 3:1 with human NAPE-PLD or Mock pcDNA3.1 Neo, 20 µg per dish. Medium is refreshed after 24 hours and cells are harvested after 72 hours.
# Cell pellets are re-suspended in lysis buffer: 20 mM Hepes, 2 mM DTT, 0.25 M sucrose, 1 mM MgCl2, 2.5 U/ml benzonase and incubated 30 minutes on ice. The cytosolic fraction (supernatant) is separated from the membranes by ultra-centrifugation (32000 rpm for 30 minutes 100,000g). The pellet is resuspended in storage buffer: 20 mM Hepes, 2 mM DTT (membrane fraction). All samples are stored at -80°C. Enzyme concentrations are determined using a Bradford assay.
# The NAPE-PLD activity assay is based on a previously reported method with small alterations.^2 The membrane protein fraction from transient overexpression of human NAPE-PLD in HEK293T cells was diluted to 0.4 mg/ml in assay buffer: 50 mM Tris-HCl (pH 7.5), 0.02% Triton X-100, 150 mM NaCl. The substrate PED6 (Invitrogen) 1 mM stock was consecutively diluted in DMSO (10x) and in assay buffer (10x) to make a 10 µM working solution. […] The assay is performed in a dark Greiner 96 wells plate, end volume 100 µl. The compound or DMSO is incubated with membrane protein lysate (final concentration 0.04 mg/ml) for 30 minutes at 37 °C. […] Mock lysate with DMSO is used for background substraction. IC50 curves are generated used Graphpad Prism v6.
# T1 sequence (Q6IQ20 whole entry): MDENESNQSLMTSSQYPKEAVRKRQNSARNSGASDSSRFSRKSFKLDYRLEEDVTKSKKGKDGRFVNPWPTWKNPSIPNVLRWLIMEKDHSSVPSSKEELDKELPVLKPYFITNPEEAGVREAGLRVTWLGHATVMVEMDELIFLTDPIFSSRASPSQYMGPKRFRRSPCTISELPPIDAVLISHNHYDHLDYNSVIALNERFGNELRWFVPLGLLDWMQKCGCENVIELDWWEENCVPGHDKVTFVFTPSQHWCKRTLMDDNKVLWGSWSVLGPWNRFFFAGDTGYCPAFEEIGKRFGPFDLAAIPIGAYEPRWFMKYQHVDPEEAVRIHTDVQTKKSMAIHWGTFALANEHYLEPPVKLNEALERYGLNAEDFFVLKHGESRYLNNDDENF
row,IC50 [µM],Structure (SMILES)
1,1.82,"Cc1ccc(CCN(C)c2nc(C(=O)NCC3CC3)cc(N3CCOCC3)n2)cc1 [Example 69, N-(cyclopropylmethyl)-2-(methyl(4-methylphenethyl)amino)-6-morpholinopyrimidine-4-carboxamide]"
2,1.1,"O=C(NCC1CC1)c1cc(N2CCOCC2)nc(N(CCc2ccccc2)C2CC2)n1 [Example 70, 2-(cyclopropyl(phenethyl)amino)-N-(cyclopropylmethyl)-6-morpholinopyrimidine-4-carboxamide]"
3,0.49,"CN(CCc1ccccc1-c1ccccc1)c1nc(C(=O)NCC2CC2)cc(N2CCOCC2)n1 [Example 71, 2-((2-([1,1'-biphenyl]-2-yl)ethyl)(methyl)amino)-N-(cyclopropylmethyl)-6-morpholino-pyrimidine-4-carboxamide]"
4,0.646,"CCN(CCc1ccccc1)c1nc(C(=O)NCC2CC2)cc(N2CCOCC2)n1 [Example 72, N-(cyclopropylmethyl)-2-(ethyl(phenethyl)amino)-6-morpholinopyrimidine-4-carboxamide]"
5,2.57,"COc1ccc(CC2CCCCN2c2nc(C(=O)NCC3CC3)cc(N3CCOCC3)n2)cc1 (stereo not drawn) [Example 73, N-(cyclopropylmethyl)-2-(2-(4-methoxybenzyl)piperidin-1-yl)-6-morpholinopyrimidine-4-carboxamide]"
6,3.24,"O=C(NCC1CC1)c1cc(N2CCOCC2)nc(N2CCN(C(=O)OCc3ccccc3)C(c3ccccc3)C2)n1 (stereo not drawn) [Example 74, benzyl 4-(4-((cyclopropylmethyl)carbamoyl)-6-morpholinopyrimidin-2-yl)-2-phenylpiperazine-1-carboxylate]"
7,1.45,"CN(CCc1ccccc1)c1cc(C(=O)NCC2CC2)cc(N2CCOCC2)n1 [Example 75, N-(cyclopropylmethyl)-2-(methyl(phenethyl)amino)-6-morpholino isonicotinamide]"
8,0.288,"CN(C)c1cc(C(=O)NCC2CC2)nc(N(C)CCc2ccccc2)n1 [Example 76, N-(cyclopropylmethyl)-6-(dimethylamino)-2-(methyl(phenethyl)amino)pyrimidine-4-carboxamide]"
9,0.501,"O=C(NCC1CC1)c1cc(N2CCOCC2)nc(N(CCc2ccccc2)c2ccccc2)n1 [Example 77, N-(cyclopropylmethyl)-6-morpholino-2-(phenethyl(phenyl)amino)pyrimidine-4-carboxamide]"
10,0.891,"Cc1ccccc1CCN(C)c1nc(C(=O)NCC2CC2)cc(N2CCOCC2)n1 [Example 78, N-(cyclopropylmethyl)-2-(methyl(2-methylphenethyl)amino)-6-morpholinopyrimidine-4-carboxamide]"
11,10.5,"CN(CCc1ccccc1)c1cc(N2CCOCC2)cc(C(=O)NCC2CC2)n1 [Example 79, N-(cyclopropylmethyl)-6-(methyl(phenethyl)amino)-4-morpholinopicolinamide]"
12,10.7,"CN(CCc1cccnc1)c1nc(C(=O)NCC2CC2)cc(N2CCOCC2)n1 [Example 80, N-(cyclopropylmethyl)-2-(methyl(2-(pyridin-3-yl)ethyl)amino)-6-morpholinopyrimidine-4-carboxamide]"
13,11.5,"CN(CCc1ccncc1)c1nc(C(=O)NCC2CC2)cc(N2CCOCC2)n1 [Example 81, N-(cyclopropylmethyl)-2-(methyl(2-(pyridin-4-yl)ethyl)amino)-6-morpholinopyrimidine-4-carboxamide]"
14,7.76,"O=C(NCC1CC1)c1cc(N2CCOCC2)nc(N2CCNC(c3ccccc3)C2)n1 (stereo not drawn) [Example 82, N-(cyclopropylmethyl)-6-morpholino-2-(3-phenylpiperazin-1-yl)pyrimidine-4-carboxamide]"
15,0.776,"COc1ccccc1CCN(C)c1nc(C(=O)NCC2CC2)cc(N2CCOCC2)n1 [Example 83, N-(cyclopropylmethyl)-2-((2-methoxyphenethyl)(methyl)amino)-6-morpholinopyrimidine-4-carboxamide]"
16,12.9,"CN(CCc1ccccn1)c1nc(C(=O)NCC2CC2)cc(N2CCOCC2)n1 [Example 84, N-(cyclopropylmethyl)-2-(methyl(2-(pyridin-2-yl)ethyl)amino)-6-morpholinopyrimidine-4-carboxamide]"
17,0.389,"CN(CCc1ccccc1)c1nc(C(=O)NCC2CC2)cc(N2CCCC(F)(F)C2)n1 [Example 86, N-(cyclopropylmethyl)-6-(3,3-difluoropiperidin-1-yl)-2-(methyl(phenethyl)amino)pyrimidine-4-carboxamide]"
18,11.2,"CN(CCc1ccccc1)c1nc(Oc2ccccc2)cc(C(=O)NCC2CC2)n1 [Example 87, N-(cyclopropylmethyl)-2-(methyl(phenethyl)amino)-6-phenoxypyrimidine-4-carboxamide]"
